≈ marks a conversion by molar mass, not a printed value.

Common to all, as to type: cell-based
Assay [1] deals with nitric oxide formation by LPS-stimulated RAW 264.7 murine macrophage cells. Put plainly: Nitric oxide inhibitory assay (Griess nitrite assay). The note with it: Mus musculus, RAW264.7; LPS-stimulated RAW 264.7, 24 h. As to the method:
RAW 264.7 murine macrophage cells were stimulated by LPS (Lipopolysaccharide) to produce inflammatory mediators as NO, the produced nitrite (NO2-) was measured using the Griess reagent, RAW 264.7 murine macrophage-like cells were grown in phenol red-free RPMI-1640 containing 10% FBS. Cells were incubated for 24 h with LPS ([…]) in the presence of different concentrations of the plant extract. Then 50 µl of supernatant from each well of cell culture was transferred into 96-well microplates and equal volume of Griess reagent (1% sulfanilamide, 0.1% N-(1-naphthyl)-ethylenediamine hydrochloride, 2.5% H3PO4) was then added to the supernatant at room temperature. The absorbance at 550 nm was determined in UV-Vis microplate reader after 10 min. The concentrations of nitrite were derived from regression analysis using serial dilutions of sodium nitrite as a standard. Percentage of inhibition was calculated based on the ability of the extract to inhibit nitric oxide formation by cells compared with the control (cells in the media without the extract containing triggering agents and DMSO), which was considered as 0% inhibition.
A general note: Nitrite, measured by Griess reagent, commonly stands in for NO production.

The subject of assay [2] is CACO2 cells (intestinal carcinoma cell line). Put plainly: MTT viability assay, CACO2. As to conditions: Homo sapiens, Caco-2, 24 h. The method, then:
The Cytotoxic activity was tested using the viability assay following the method reported by Mosmann, T., 1983 [21, 22]. HepG2 cells (liver carcinoma cell line), MCF-7cells (breast carcinoma cell line) and CACO2 cells (intestinal carcinoma cell line) (American Type Culture Collection ATCC, Rockville, MD) were applied through the tissue Culture Unit, the Egyptian Organization for Biological Products and Vaccines, Vacsera, Egypt. In brief, the tumor cell lines were suspended in medium at concentration 5 × 10^4 cell/ well in Corning® 96-well tissue culture plates and then incubated for 24 h. The alcoholic extract of F. cretica was then added into 96-well plates (three replicates) to achieve twelve concentrations. Six vehicle controls with media or 0.5% DMSO were run for each 96 well plate as a control. After incubating for 24 h, the number of viable cells was determined by the MTT test. Briefly, the media was removed from the 96 well plates and replaced with 100 µl of fresh culture RPMI 1640 medium without phenol red then 10 µl of the 12 mM MTT stock solution (5 mg of MTT in 1 ml of PBS) to each well including the untreated controls. […] Then, the optical density (OD) was measured at 590 nm with the microplate reader (SunRise, TECAN, Inc, USA) to determine the number of viable cells and the percentage of viability was calculated as follows: […]

The next assay deals with Caspase-9 (human). Description: Caspase-9 level ELISA in MCF-7. As to the method: To measure caspase-9 levels, DRG® Caspase-9 (human) ELISA (EIA-4860) kits were used. In brief, the breast cancer cell line (MCF-7) extracts were prepared after elevation of apoptosis. The extracts were suspended in lysis buffer, and incubated at room temperature for 60 min and then centrifuge for 15 min. The microwell strips were washed with 400 µl wash buffer, followed by addition of 100 µl of sample diluent in duplicate to all standard wells, 100 µl of sample diluent in duplicate to the blank wells, 50 µl of sample diluent to the sample, and 50 µl of each sample in duplicate to the sample wells. Then the detection antibody 50 µl was added to all wells and incubated for 2 h at room temperature. The diluted antirabbit-IgG-HRP (anti-rabbit-immunoglobulin G-horseradish peroxidase) 100 µl was added to all wells together with blank wells. TMB substrate solution 100 µl was added to all wells and incubated for 15 min. at room temperature. Finally, the enzyme reaction was stopped by adding 100 µl of the stop solution to all wells. The absorbance of each microwell was measured at 450 nm using a spectrophotometer. The absorbance of the samples and standard were recorded.
(An ELISA detects its analyte on a solid surface through an enzyme-linked reagent.)

In assay [1], `O=C1O[C@H]([C@@H](O)CO)C(O)=C1O` [Ascorbic acid] showed an IC50 of 18.7 ± 0.77 µg/mL (≈ 106 µM).

Consider `COc1cccc2c1C(=O)c1c(O)c3c(c(O)c1C2=O)C[C@@](O)(C(=O)CO)C[C@@H]3O[C@H]1C[C@H](N)[C@H](O)[C@H](C)O1` [Doxorubicin], for which the IC50 in assay [2] was 7.75 ± 0.4 µg/mL (≈ 14.3 µM). Further, the Caspase-9 level induction in the assay on Caspase-9 (human) (MCF-7) came to 8.67 folds. The “Caspase-9 (Conc.)” value with Caspase-9 (human) (breast human carcinoma cell line (MCF-7), control 2.986 ± 0.31) worked out at 25.84 ± 0.39 ng/mL.

One may read the IC50 as the midpoint of a concentration-inhibition curve. Low values mean greater potency, high ones weaker potency.
